In general, inhibition refers to the percentage by which the read-out fell short of the control.

The record followed here is patent publication US11629146B2, “Substituted [1,2,4]triazolo[4,3-a]pyrazines as modulators of sodium channel activity” (Praxis Precision Medicines, Inc., priority 2016, dated 2023).

This test concerns the target human NaV1.6 (hNaV1.6) (Homo sapiens (Human), UniProt Q9UQD0). Nature of the test: INaL inhibition at hNaV1.6, PatchXpress electrophysiology. Format: cell-based. The method, then: Functional characterization of exemplary compounds to modulate INaL expressed by the Nay 1.6 voltage-gated sodium channel was accomplished using the PatchXpress™ high throughput electrophysiology platform (Molecular Devices, Sunnyvale, Calif.). HEK-293 cells expressing recombinant, human NaV1.6 (hNaV1.6) were grown in DMEM/high-glucose Dulbecco's modified, 10% FBS, 2 mM sodium pyruvate, 10 mM HEPES and 400 μg/mL G418. Cells were grown to 50%-80% confluency prior to harvesting. […] The onboard liquid handling facility of the PatchXpress was used for dispensing cells and applying test compounds. Nay late currents were evoked by the application of 300 nM ATX-II. […] INaL amplitude and stability were determined by analyzing the mean current amplitude over the final 20 ms of the test pulse. […] Percent steady-state inhibition of INaL was calculated as: [(INaL_compound)/(INaL_control)]*100, where INaL_compound and INaL_control represent INaL recorded in the presence or absence of compound, respectively.

Where [1] appears, read: 1 μM, HEK-293 cells expressing hNaV1.6, late current evoked by 300 nM ATX-II.
Where [2] appears, read: HEK293, 1 μM, HEK-293 cells expressing hNaV1.6, late current evoked by 300 nM ATX-II, read-out: INaL v1.6 (1 μM, % Inhibition).
Where [3] appears, read: HEK293, read-out: INaL v1.6 (1 μM, % Inhibition).

Structures are written as SMILES. Where two headings read alike, the source gives them in different places.

Sequence of human NaV1.6 (hNaV1.6) (Q9UQD0 whole entry): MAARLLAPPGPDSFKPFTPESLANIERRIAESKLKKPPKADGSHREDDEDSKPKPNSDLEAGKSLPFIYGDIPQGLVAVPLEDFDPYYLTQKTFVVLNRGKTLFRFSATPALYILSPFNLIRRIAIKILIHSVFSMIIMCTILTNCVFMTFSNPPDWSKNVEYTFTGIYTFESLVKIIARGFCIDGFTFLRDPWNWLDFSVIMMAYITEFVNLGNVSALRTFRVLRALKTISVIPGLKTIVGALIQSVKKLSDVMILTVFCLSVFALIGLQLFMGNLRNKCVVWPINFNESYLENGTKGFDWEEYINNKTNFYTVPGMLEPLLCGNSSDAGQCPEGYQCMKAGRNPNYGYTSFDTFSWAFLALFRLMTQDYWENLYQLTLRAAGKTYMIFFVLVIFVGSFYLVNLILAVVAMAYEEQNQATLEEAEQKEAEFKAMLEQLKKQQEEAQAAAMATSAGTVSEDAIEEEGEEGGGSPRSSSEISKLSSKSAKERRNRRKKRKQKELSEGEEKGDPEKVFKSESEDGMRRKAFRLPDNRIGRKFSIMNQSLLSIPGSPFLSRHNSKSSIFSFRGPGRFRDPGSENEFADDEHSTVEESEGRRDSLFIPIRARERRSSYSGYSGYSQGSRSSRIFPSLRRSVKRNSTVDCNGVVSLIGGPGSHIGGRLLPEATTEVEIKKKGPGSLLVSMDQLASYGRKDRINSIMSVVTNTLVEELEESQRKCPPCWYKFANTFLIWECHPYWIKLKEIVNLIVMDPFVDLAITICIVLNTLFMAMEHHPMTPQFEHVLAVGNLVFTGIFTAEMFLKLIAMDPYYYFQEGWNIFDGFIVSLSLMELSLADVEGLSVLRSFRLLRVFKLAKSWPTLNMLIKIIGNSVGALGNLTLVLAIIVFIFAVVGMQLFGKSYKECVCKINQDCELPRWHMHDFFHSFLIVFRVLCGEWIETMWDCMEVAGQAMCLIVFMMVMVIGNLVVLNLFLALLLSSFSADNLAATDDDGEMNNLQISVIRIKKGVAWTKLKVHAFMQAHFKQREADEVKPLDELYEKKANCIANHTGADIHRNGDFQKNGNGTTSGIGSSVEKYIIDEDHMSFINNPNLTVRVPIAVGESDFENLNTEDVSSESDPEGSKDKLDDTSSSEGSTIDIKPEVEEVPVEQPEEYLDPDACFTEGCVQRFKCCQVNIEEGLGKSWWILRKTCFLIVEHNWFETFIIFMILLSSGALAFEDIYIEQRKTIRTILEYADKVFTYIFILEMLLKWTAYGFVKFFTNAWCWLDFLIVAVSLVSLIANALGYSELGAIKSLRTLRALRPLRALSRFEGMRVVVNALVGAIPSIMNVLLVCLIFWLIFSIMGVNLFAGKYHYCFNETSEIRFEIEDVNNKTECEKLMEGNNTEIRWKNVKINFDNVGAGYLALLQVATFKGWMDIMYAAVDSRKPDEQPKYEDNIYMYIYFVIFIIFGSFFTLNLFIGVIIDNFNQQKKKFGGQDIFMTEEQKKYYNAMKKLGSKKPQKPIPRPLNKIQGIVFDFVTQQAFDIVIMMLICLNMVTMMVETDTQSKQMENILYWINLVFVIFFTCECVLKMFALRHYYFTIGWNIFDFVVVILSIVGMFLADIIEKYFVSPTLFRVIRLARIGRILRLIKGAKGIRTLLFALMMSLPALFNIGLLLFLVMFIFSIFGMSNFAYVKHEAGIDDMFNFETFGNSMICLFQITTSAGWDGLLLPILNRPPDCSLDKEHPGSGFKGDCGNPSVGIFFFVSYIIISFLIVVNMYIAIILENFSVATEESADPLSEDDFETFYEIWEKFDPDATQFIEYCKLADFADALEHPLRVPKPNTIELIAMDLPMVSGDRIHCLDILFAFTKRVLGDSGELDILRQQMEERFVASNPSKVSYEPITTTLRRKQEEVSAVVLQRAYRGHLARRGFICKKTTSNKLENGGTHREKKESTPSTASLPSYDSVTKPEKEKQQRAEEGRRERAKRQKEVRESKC

Regarding `FC(F)(F)Oc1ccc(-c2ccc3nnc(C4CC4(F)F)n3n2)cc1` (single isomer, unassigned) [Compound 46], under setting [1], the “INaL v1.6 (1 μM, % Inhibition)” value was “C (inhibition of greater than 70%)”.
`FC(F)(F)Oc1ccc(-c2cn3c(C[C@H]4CCCOC4)nnc3cn2)cc1` (single isomer, unassigned) [Compound 154]: the inhibition at 1 µM under setting [2] was under 30%.
Still for that read-out and setting: the same measure for `FC(F)(F)Oc1ccc(-c2cn3c(C[C@@H]4CCCOC4)nnc3cn2)cc1` (single isomer, unassigned) [Compound 155]: under 30%; for `N#Cc1cc(C(F)(F)F)ccc1-c1ccc2nnc(C(F)(F)F)n2n1` [Compound 4]: under 30%; for `COc1cc(OC(F)(F)F)ccc1-c1ccc2nnc(C(F)(F)F)n2n1` [Compound 5]: over 70%.
Still for that read-out and setting: the value for `FC(F)(F)Oc1ccc(-c2ccc3nnc(C(F)(F)F)n3n2)c(C2COC2)c1` [Compound 32] was 30 to 70%; that for `COc1cc(OC(F)(F)F)ccc1-c1ccc2nnc(C(F)(F)OC)n2n1` [Compound 33] was over 70%.
Same read-out and setting: the value for `COc1cc(OC(F)(F)F)ccc1-c1ccc2nnc(C(F)(F)OCC3CC3)n2n1` [Compound 34] was over 70%.
Regarding `FC(F)(F)Oc1ccc(Cl)c(-c2ccc3nnc(C(F)(F)F)n3n2)c1` [Compound 35], the inhibition at 1 µM under setting [2] is under 30%.
On to `Cc1ccc(OC(F)(F)F)cc1-c1ccc2nnc(C(F)(F)F)n2n1` [Compound 36], for which the inhibition at 1 µM under setting [2] is under 30%.
In the case of `FC(F)(F)Oc1ccc(-c2ccc3nnc(CC4CCCOC4)n3n2)cc1` (stereo not drawn) [Compound 38], the inhibition at 1 µM under setting [3] was 30 to 70%.
On the same count and under the same terms, the same measure for `FC(F)(F)Oc1ccc(-c2ccc3nnc(CC4CCOCC4)n3n2)cc1` [Compound 39]: under 30%.
Turning to `N#Cc1ccc(OC(F)(F)F)cc1-c1ccc2nnc(C(F)(F)F)n2n1` [Compound 40], the inhibition at 1 µM under setting [2] was under 30%.
Still for that read-out and setting: the same measure for `FC(F)c1nnc2cnc(-c3ccc(OC(F)(F)F)cc3)cn12` [Compound 47]: 30 to 70%; for `COc1cc(OC(F)(F)F)ccc1-c1cn2c(C(F)F)nnc2cn1` [Compound 48]: under 30%.
Still for that read-out and setting: the same measure for `FC(F)c1nnc2cnc(-c3ccc(OCC(F)(F)F)nc3)cn12` [Compound 50]: 30 to 70%; for `COC(C)(C)c1ccc(-c2cn3c(C(F)F)nnc3cn2)cc1` [Compound 51]: under 30%; for `FC(F)(F)Oc1ccc(-c2cnc3nnc(C(F)(F)F)n3c2)cc1` [Compound 54]: under 30%.
On the same count and under the same terms, the value for `FC(F)(F)Oc1ccc(-c2cnc3nncn3c2)cc1` [Compound 55] was under 30%.
For `FC(F)(F)Oc1ccc(-c2cn3c(C(F)(F)F)nnc3cn2)cc1` [Compound 56], the inhibition at 1 µM under setting [2] is over 70%.
`CC(C)(C#N)c1ccc(-c2cn3c(C(F)F)nnc3cn2)cc1` [Compound 57]: the inhibition at 1 µM under setting [3] was under 30%.
For the molecule `FC(F)(F)COc1ccc(-c2ccc3nnc(C(F)(F)F)n3n2)nc1` [Compound 58], the inhibition at 1 µM under setting [2] fell in the range of 30 to 70%.
Regarding `N#CC1(c2ccc(-c3ccc4nnc(C(F)(F)F)n4n3)cc2)CCC1` [Compound 60], under setting [3], the inhibition at 1 µM lay within 30 to 70%.
As to `FC(F)(F)c1ccc(-c2cn3c(C(F)(F)F)nnc3cn2)cc1` [Compound 62], the inhibition at 1 µM under setting [2] was 30 to 70%.
Still for that read-out and setting: the same measure for `COc1cc(C2(C#N)CC2)ccc1-c1cn2c(C(F)(F)F)nnc2cn1` [Compound 64]: under 30%.
For the molecule `COCc1cc(OC(F)(F)F)ccc1-c1cn2c(C(F)(F)F)nnc2cn1` [Compound 66], the “INaL v1.6 (1 μM, % Inhibition)” value under setting [1] is recorded as “C (inhibition of greater than 70%)”.
`N#CC1(c2ccc(-c3cn4c(C(F)(F)F)nnc4cn3)cc2)CC1` [Compound 67]: under setting [2], the inhibition at 1 µM was under 30%.
Still for that read-out and setting: the same measure for `COc1cc(OC(F)(F)F)ccc1-c1cn2c(C(F)(F)F)nnc2cn1` [Compound 70]: 30 to 70%; for `N#CC1(c2ccc(-c3cn4c(C(F)(F)F)nnc4cn3)cc2)CCC1` [Compound 71]: 30 to 70%; for `CCOc1ccc(-c2cn3c(C(F)(F)F)nnc3cn2)cc1` [Compound 74]: under 30%.
The same measure, in the same setting: the same measure for `CC(C)c1nnc2cnc(-c3ccc(OC(F)(F)F)cc3)cn12` [Compound 75]: under 30%; for `Fc1cc(C(F)(F)F)ccc1-c1cn2c(C(F)(F)F)nnc2cn1` [Compound 76]: 30 to 70%; for `Fc1cc(-c2cn3c(C(F)(F)F)nnc3cn2)ccc1OC(F)(F)F` [Compound 79]: over 70%.
Same read-out and setting: the value for `FC(F)(F)Oc1ccc(-c2cn3c(C4CC4)nnc3cn2)cc1` [Compound 80] was 30 to 70%; that for `FC1(F)CC(c2nnc3cnc(-c4ccc(OC(F)(F)F)cc4)cn23)C1` [Compound 82] was 30 to 70%; that for `Fc1cc(-c2ccc3nnc(C4CC(F)(F)C4)n3n2)cnc1OCC(F)(F)F` [Compound 83] was 30 to 70%.
With `Fc1cc(-c2cn3c(C(F)(F)F)nnc3cn2)cnc1OC1CC(F)(F)C1` [Compound 84], the “INaL v1.6 (1 μM, % Inhibition)” value under setting [1] is listed as “C (inhibition of greater than 70%)”.
Regarding `Fc1cc(-c2ccc3nnc(C(F)F)n3n2)cnc1OCC(F)(F)F` [Compound 85], under setting [2], the inhibition at 1 µM was under 30%.
The same measure, in the same setting: the same measure for `FC1(F)CC(Oc2ccc(-c3cn4c(C(F)(F)F)nnc4cn3)cn2)C1` [Compound 86]: 30 to 70%; for `Fc1cc(-c2ccc3nnc(C4(F)CC4)n3n2)cnc1OCC(F)(F)F` [Compound 88]: 30 to 70%.
The same measure, in the same setting: the same measure for `COc1cc(C(F)(F)F)ccc1-c1ccc2nnc(C(F)(F)F)n2n1` [Compound 89]: over 70%.
The same measure, in the same setting: the same measure for `Fc1cc(-c2ccc3nnc(C(F)(F)F)n3n2)cnc1OC1CC(F)(F)C1` [Compound 93]: over 70%; for `Cc1cc(OC2CC(F)(F)C2)ccc1-c1ccc2nnc(C(F)(F)F)n2n1` [Compound 94]: 30 to 70%.
Consider `Cc1nnc2cnc(-c3ccc(OC(F)(F)F)cc3)cn12` [Compound 95], for which the inhibition at 1 µM under setting [3] was under 30%.
`COC(F)(F)c1nnc2cnc(-c3ccc(OC(F)(F)F)cc3)cn12` [Compound 97]: under setting [2], the inhibition at 1 µM was over 70%.
On the same count and under the same terms, the same measure for `Cc1cc(-c2ccc3nnc(C(F)(F)F)n3n2)ccc1C(F)(F)F` [Compound 98]: over 70%.
Same read-out and setting: the value for `Fc1cc(-c2ccc3nnc(C(F)(F)F)n3n2)cnc1C(F)(F)F` [Compound 99] was under 30%; that for `Fc1cc(-c2ccc3nnc(C(F)(F)F)n3n2)ccc1OC1CC(F)(F)C1` [Compound 100] was 30 to 70%.
On the same count and under the same terms, the same measure for `FC(F)OCc1cc(OC(F)(F)F)ccc1-c1ccc2nnc(C(F)(F)F)n2n1` [Compound 101]: 30 to 70%.
For `CC(C)(O)c1ccc(-c2ccc3nnc(C(F)(F)F)n3n2)cc1` [Compound 102], the inhibition at 1 µM under setting [2] was under 30%.
Same read-out and setting: the same measure for `Fc1cc(-c2ccc3nnc(C4CC4)n3n2)cnc1OCC(F)(F)F` [Compound 103]: 30 to 70%.
As for `N#CC1(c2ccc(-c3ccc4nnc(C(F)(F)F)n4n3)cc2F)CC1` [Compound 104], under setting [3], the inhibition at 1 µM was under 30%.
`COC(F)(F)c1nnc2ccc(-c3ccc(C(F)(F)F)cc3C)nn12` [Compound 111]: under setting [2], the inhibition at 1 µM is over 70%.
Still for that read-out and setting: the value for `O=C(Cc1nnc2cnc(-c3ccc(OC(F)(F)F)cc3)cn12)N1CCCC1` [Compound 114] was 30 to 70%; that for `OCc1cc(-c2ccc3nnc(C(F)(F)F)n3n2)ccc1OC(F)(F)F` [Compound 115, [2-(trifluoromethoxy)-5-[3-(trifluoromethyl)-[1,2,4]triazolo[4,3-b]pyridazin-6-yl]phenyl]methanol] was 30 to 70%.
Still for that read-out and setting: the value for `FC(F)Oc1ccc(-c2ccc3nnc(C(F)(F)F)n3n2)cc1` [Compound 116] was over 70%; that for `FC(F)(F)OCc1ccc(-c2ccc3nnc(C(F)(F)F)n3n2)cc1` [Compound 118] was over 70%.
Still for that read-out and setting: the same measure for `FCCc1nnc2cnc(-c3ccc(OC(F)(F)F)cc3)cn12` [Compound 119]: under 30%.
Consider `FC(F)(F)c1nnc2ccc(-c3ccc(C4CC4(F)F)cc3)nn12` (stereo not drawn) [Compound 120, 6-[4-(2,2-difluorocyclopropyl)phenyl]-3-(trifluoromethyl)-[1,2,4]triazolo[4,3-b]pyridazine], for which, under setting [3], the inhibition at 1 µM was over 70%.
The same measure, in the same setting: the value for `FC(F)(F)c1nnc2ccc(-c3ccc([C@H]4CC4(F)F)cc3)nn12` [Compound 121, 6-[4-[(1R)-2,2-difluorocyclopropyl]phenyl]-3-(trifluoromethyl)-[1,2,4]triazolo[4,3-b]pyridazine] was over 70%.
For `CC(Oc1ncc(-c2ccc3nnc(C(F)(F)F)n3n2)cc1F)C(F)(F)F` (stereo not drawn) [Compound 128], the inhibition at 1 µM under setting [2] is over 70%.
On the same count and under the same terms, the same measure for `FC(F)(F)Oc1ccc(-c2cn3c(C[C@H]4CCCCO4)nnc3cn2)cc1` [Compound 129, 3-[[(2R)-tetrahydropyran-2-yl]methyl]-6-[4-(trifluoromethoxy)phenyl]-[1,2,4]triazolo[4,3-a]pyrazine]: under 30%; for `FC(F)(F)Oc1ccc(-c2cn3c(C[C@@H]4CCCCO4)nnc3cn2)cc1` [Compound 130, 3-[[(2S)-tetrahydropyran-2-yl]methyl]-6-[4-(trifluoromethoxy)phenyl]-[1,2,4]triazolo[4,3-a]pyrazine]: 30 to 70%.
